Like-named read-outs stand apart in the source and are kept apart here.
Target: T1, α4·IgG heavy chain-β1·IgG heavy chain chimeric protein heterodimer complex (integrin α4β1; sequence Nos. 1 and 2) (Homo sapiens, UniProt P05556+P13612)
T1 construct: made in house; culture supernatant used in the assay
Assay: Inhibition of the binding of the α4·IgG heavy chain-β1·IgG heavy chain chimeric protein heterodimer complex to solid-phase CS-1-IgG (peptide fragment of fibronectin), ELISA-type detection at 490 nm
Details: for inhibition at 50 µg/mL / inhibition at 100 µg/mL: read-out: Inhibition rate (%); for IC50: binding assay system of Example 9: binding to CS-1-IgG, cyclic phage-library peptides, read-out: Inhibitory activity IC50; for inhibition at 100 µg/mL: compound concentration 100 μg/ml
Description: At first, according to the said report (Humphries, M. J. et al., J. Biol. Chem., 262, 6886-6892 (1987)), the peptide fragment of sequence No. 3 (CS-1 peptide) was bound to rabbit IgG (Sigma), to prepare CS-1-IgG. The CS-1-IgG was diluted by PBS(-), and put in a 96-well immunoplate (NUNC) by 100 µl/well, and allowed to stand at 4°C for 16 hours, to be formed as a solid phase on the plate.
After completion of standing, the surface of the plate was washed with PBS(-) twice and treated with denatured 1% BSA(heat-natured at 80°C for 10 minutes)-PBS solution ( 300 µl/well) at 4°C for 3 hours to block the nonspecific reaction. Then, the solid phase CS-1-IgG and the CHO culture supernatant (100 µl) containing α4·IgG heavy chain-β1·IgG heavy chain chimeric protein heterodimer complex were reacted with each other at 30°C for 3 hours. The non-bound α4·IgG heavy chain-β1·IgG heavy chain chimeric protein heterodimer complex was removed by washing with 0.1% BSA-containing TBS buffer (150 mM NaCl, 25 mM Tris-HCl, 1 mM MnCl2, pH 7.4) twice, and the bound α4·IgG heavy chain-β1·IgG heavy chain chimeric protein heterodimer complex was detected by biotin labeled anti-human IgG antibody (Vector) as the primary antibody and avidin labeled horseradish peroxidase (Sigma) as the secondary antibody. The surface of the plate was washed with the TBS buffer. Orthophenylenediamine was added as a substrate to it for color development, and the absorbance at 490 nm were measured.
The all peptides were synthesized by a peptide synthesizer. The peptide and 100 µl of CHO cultured supernatant solution containing αα4·IgG heavy chain-β1·IgG heavy chain chimeric protein heterodimer complex were mixed at room temperature for 20 minutes, and the binding to CS-1-IgG was determined according to the method in Example 9.
At first, α4·IgG heavy chain-β1·IgG heavy chain chimeric protein heterodimer complex purified in Example 6, or human IgG was prepared at a proper concentration by PBS (-) and was coated on a plastic plate at 4°C for 16 hours, being formed as a solid phase on a plastic plate. Then, according to a report (Cott, J. K. and Smoth, G. P., Science, 249, 386-390 (1990)), a phage peptide library in which a random six amino acid residues were cyclyzed by the disulfide bond of cysteine at both the ends was prepared and suspended in 0.1% BSA-containing TBS buffer. The phage peptide library was reacted with human IgG at 30°C for 3 hours, to absorb phage peptides capable of being bound to IgG. Then, the non-absorbed phases were reacted with α4·IgG heavy chain-β1·IgG heavy chain chimeric protein heterodimer complex at 30°C for 3 hours, and the reaction mixture was washed with 0.1% BSA-containing TBS buffer twice to remove the phage peptides incapable of being bound to the heterodimer complex. Only the phage peptides capable of being bound were collected after elution with 0.1M glycine-hydrochloric acid (pH 2.2). After collection, the phage was amplified and the above mentioned binding operation was repeated further twice. The only the phage peptides capable of being bound to the heterodimer complex were selectively concentrated. In the final elution operation, phage peptides capable of being bound to the heterodimer complex were eluted using 10 mM EDTA and 0.1M glycine-hydrochloric acid in two steps, and the amino acid sequences of the respective peptides were analyzed. Furthermore, they were examined using the binding assay system of Example 9, and the IC50 values of the four peptide sequences showing binding inhibitory activity are shown in Table 1.
Reagents and reported compounds were picked up at random, adjusted to a final concentration of 50 or 100 µg/ml, and added to the binding determination system in Example 9. Compounds showing inhibitory activity were obtained. […]

[1] = binding determination system of Example 9 (CS-1-IgG)

T1 sequence (P13612 35-977 limits assumed, change not shown): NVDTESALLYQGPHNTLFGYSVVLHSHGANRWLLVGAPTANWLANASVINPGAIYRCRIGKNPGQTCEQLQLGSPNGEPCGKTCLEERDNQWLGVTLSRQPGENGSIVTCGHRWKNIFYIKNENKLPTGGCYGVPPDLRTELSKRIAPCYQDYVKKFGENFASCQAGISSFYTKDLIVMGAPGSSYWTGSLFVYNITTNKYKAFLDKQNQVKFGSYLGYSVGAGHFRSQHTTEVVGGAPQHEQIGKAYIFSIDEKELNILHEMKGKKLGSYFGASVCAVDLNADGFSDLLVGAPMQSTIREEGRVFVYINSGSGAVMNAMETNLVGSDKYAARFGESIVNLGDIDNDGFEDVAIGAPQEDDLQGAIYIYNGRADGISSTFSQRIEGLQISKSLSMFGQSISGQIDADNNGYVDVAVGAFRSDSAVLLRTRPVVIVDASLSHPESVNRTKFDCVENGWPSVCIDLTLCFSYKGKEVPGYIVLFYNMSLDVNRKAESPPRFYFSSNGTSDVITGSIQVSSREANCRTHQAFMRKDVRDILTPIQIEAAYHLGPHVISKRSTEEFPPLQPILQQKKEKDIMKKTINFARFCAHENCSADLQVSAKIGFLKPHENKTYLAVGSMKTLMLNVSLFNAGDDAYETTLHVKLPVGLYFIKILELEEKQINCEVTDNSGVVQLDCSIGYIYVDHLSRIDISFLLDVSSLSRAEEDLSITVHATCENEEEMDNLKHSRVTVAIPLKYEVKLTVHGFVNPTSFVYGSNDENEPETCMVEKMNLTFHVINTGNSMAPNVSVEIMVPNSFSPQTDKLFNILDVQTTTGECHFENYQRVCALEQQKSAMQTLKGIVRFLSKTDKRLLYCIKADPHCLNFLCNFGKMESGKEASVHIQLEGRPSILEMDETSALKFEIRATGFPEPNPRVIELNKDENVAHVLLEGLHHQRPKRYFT
T1 sequence (P05556 21-728 limits assumed, change not shown): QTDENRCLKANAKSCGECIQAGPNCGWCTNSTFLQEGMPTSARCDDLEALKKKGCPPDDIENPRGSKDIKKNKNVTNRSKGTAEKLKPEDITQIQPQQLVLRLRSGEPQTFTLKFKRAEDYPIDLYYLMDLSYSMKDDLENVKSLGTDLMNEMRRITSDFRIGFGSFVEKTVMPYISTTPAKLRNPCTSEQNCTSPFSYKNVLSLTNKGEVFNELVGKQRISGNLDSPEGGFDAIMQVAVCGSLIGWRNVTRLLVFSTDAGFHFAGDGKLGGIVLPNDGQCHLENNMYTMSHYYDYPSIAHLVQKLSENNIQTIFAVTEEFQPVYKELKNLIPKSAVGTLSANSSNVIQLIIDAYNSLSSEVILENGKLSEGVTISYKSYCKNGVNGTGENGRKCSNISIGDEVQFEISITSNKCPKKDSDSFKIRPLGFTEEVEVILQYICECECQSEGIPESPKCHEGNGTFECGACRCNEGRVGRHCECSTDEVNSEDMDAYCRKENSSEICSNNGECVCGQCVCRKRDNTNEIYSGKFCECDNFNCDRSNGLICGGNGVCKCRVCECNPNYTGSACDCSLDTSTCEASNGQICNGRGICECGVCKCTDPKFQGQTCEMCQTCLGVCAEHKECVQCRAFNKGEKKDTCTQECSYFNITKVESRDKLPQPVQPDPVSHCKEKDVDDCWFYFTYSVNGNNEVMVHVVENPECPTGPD
T1 sequence (P01857 99-330 partner limits assumed): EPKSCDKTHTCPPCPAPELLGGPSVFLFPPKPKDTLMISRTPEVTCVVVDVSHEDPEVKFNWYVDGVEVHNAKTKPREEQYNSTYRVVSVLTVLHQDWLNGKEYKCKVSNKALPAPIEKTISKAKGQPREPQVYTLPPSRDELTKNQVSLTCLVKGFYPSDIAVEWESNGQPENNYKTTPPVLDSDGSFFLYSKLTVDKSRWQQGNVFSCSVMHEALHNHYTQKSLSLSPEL

Row | Compound | IC50 | further results
1 | C#C[C@]1(O)CC[C@H]2[C@@H]3CCC4=C(CCC(=O)C4)[C@H]3CC[C@@]21C [Norethynodrel] | – | inhibition at 50 µg/mL (compound concentration 50 μg/ml, binding determination system of Example 9 (CS-1-IgG)): 28%
2 | Cys* Ile Pro Glu Leu Ile Val Cys* (IPELIVC; printed: Ile Pro Glu Leu Ile Val Cys) [Sequence No. 24] | 1.2 µM | –
3 | O=C(O)CC12CC3CC(CC(C3)C1)C2 [1-Adamantaneacetic acid] | – | inhibition at 100 µg/mL [1]: 65%
4 | Cys* Leu Arg Tyr Ser Val Pro Cys* (LRYSVPC; printed: Leu Arg Tyr Ser Val Pro Cys) [Sequence No. 28] | 1.8 µM | –
5 | Cys* Gly Leu Gln Ala Leu Pro Cys* (GLQALPC; printed: Gly Leu Gln Ala Leu Pro Cys) [Sequence No. 30] | 10 µM | –
6 | CC(C)(S)[C@@H](N)C(=O)O [D-Penicillamine] | – | inhibition at 50 µg/mL: 51%
7 | Cys* Met Arg Tyr Thr Ser Ala Cys* (MRYTSAC; printed: Met Arg Tyr Thr Ser Ala Cys) [Sequence No. 25] | 2.3 µM | –
8 | O=C(O)CCCc1ccc2ccccc2c1 [γ-2-Naphtyl butyric acid, γ-2-Naphthyl butyric acid] | – | inhibition at 100 µg/mL [1]: 37%

— EP0896002A1, “CHIMERIC PROTEINS, HETERODIMER COMPLEXES THEREOF AND SUBSTITUTE FOR PLATELET” (TORAY INDUSTRIES, INC., priority 1997, dated 1998)
